Test results from patent US20240417370A1, “LIPIDS FOR USE IN LIPID NANOPARTICLE FORMULATIONS” (Acuitas Therapeutics, Inc., priority 2023, published 2024).

System: human IgG in mouse serum
Assay: Immunoglobulin G (IgG) mRNA in vivo evaluation using lipid nanoparticle compositions
Design: species or system mice
Conditions: LNP-formulated lipid, tail vein injection, μg IgG/mL serum 24 hours after administration; for Serum IgG @ 0.3 mg/kg: 0.3 mg mRNA/kg; for Serum IgG @ 1.0 mg/kg: 1.0 mg mRNA/kg
Method: A lipid of structure (I), DSPC, cholesterol and PEG-lipid are solubilized in ethanol at a molar ratio of 50:10:38.5:1.5 or 47.5:10:40.7:1.8. Lipid nanoparticles (LNP) are prepared at a total lipid to mRNA weight ratio of approximately 10:1 to 40:1. Briefly, the mRNA is diluted to 0.2 mg/mL in 10 to 50 mM citrate buffer, pH 4 to 6 or 10 to 25 mM acetate buffer, pH 4 to 6. Syringe pumps are used to mix the ethanolic lipid solution with the mRNA aqueous solution at a ratio of about 1:5 to 1:3 (vol/vol) with total flow rates above 15 mL/min. The ethanol is then removed, and the external buffer replaced with PBS by dialysis. Finally, the lipid nanoparticles are filtered through a 0.2 µm pore sterile filter.
Studies are performed in 6-8-week-old CD-1/ICR mice (Envigo, Charles River, or Inotiv) according to guidelines established by an institutional animal care committee (ACC) and the Canadian Council on Animal Care (CCAC). Varying doses of mRNA-lipid nanoparticle are systemically administered by tail vein injection and animals euthanized at a specific time point (e.g., 24 hours) post-administration. The whole blood is collected, and the serum subsequentially separated by centrifuging the tubes of the whole blood at 2000×g for 10 minutes at 4° C. and stored at −80° C. until use for analysis.
For immunoglobulin G (IgG) ELISA (Life Diagnostics Human IgG ELISA kit), the serum samples are diluted at 100 to 20,000 folds with 1× diluent solution. 100 μL of diluted serum is dispensed into anti-human IgG coated 96-well plate in duplicate alongside human IgG standards and incubated in a plate shaker at 150 rpm at 25° C. for 45 minutes. The wells are washed 5 times with 1× wash solution using a plate washer (400 μL/well). 100 μL of HRP conjugate is added into each well and incubated in a plate shaker at the same condition above. The wells are washed 5 times again with 1× wash solution using a plate washer (400 μL/well). 100 μL of TMB reagent is added into each well and incubated in a plate shaker at the same condition above. The reaction is stopped by adding 100 μL of Stop solution to each well. The absorbance is read at 450 nm (A450) with a microplate reader. The amount of human IgG in mouse serum is determined by plotting A450 values for the assay standard against human IgG concentration.
Representative compounds of the disclosure shown in Table 2 were formulated using the following molar ratio: 50% cationic lipid/10% distearoylphosphatidylcholine (DSPC)/38.5% Cholesterol/1.5% PEG lipid 2-[2-(ω-methoxy(polyethyleneglycol2000)ethoxy]-N,N-ditetradecylacetamide) or 47.5% cationic lipid/10% DSPC/40.7% Cholesterol/1.8% PEG lipid. Relative activity was determined by measuring luciferase expression in the liver 4 hours following administration via tail vein injection as described in Example 1 or by measuring the amount of human IgG in mouse serum as described in example 2. The activity was compared at a dose of 1.0 or 0.5 or 0.3 mg mRNA/kg and expressed as ng luciferase/g liver measured 4 hours after administration, as described in Example 1 or as μg IgG/mL serum measured 24 hours after administration, as described in Example 2. Compound numbers in Table 2 refer to the compound numbers of Table 1.

| SMILES | Serum IgG @ 0.3 mg/kg [µg/mL] | Serum IgG @ 1.0 mg/kg [µg/mL] |
| --- | --- | --- |
| CCCCCCCCCCN(CCCCCCCCCC)C(=O)C(F)CCCCCCN(CCCCCCC(F)C(=O)N(CCCCCCCCCC)CCCCCCCCCC)[C@H]1CC[C@@H](O)CC1 (stereo partly drawn) [(1S, 4S) I-49, 8,8′-(((1s,4s)-4-hydroxycyclohexyl)azanediyl)bis(N,N-didecyl-2-fluorooctanamide)] | 60.49 ± 26.40 | 332.8 ± 57.13 |
| CCCCCCCCCCN(CCCCCCCCCC)C(=O)CCCCCCCN(CCCCCCCC(=O)N(CCCCCCCCCC)CCCCCCCCCC)[C@@H]1CC[C@@H](O)C1 (racemic) [(rac)-(1RS, 3RS) I-14, 8,8′-(((1r,3r)-3-hydroxycyclopentyl)azanediyl)bis(N,N-didecyloctanamide); 8,8′-(((1s,3s)-3-hydroxycyclopentyl)azanediyl)bis(N,N-didecyloctanamide)] | 11.48 ± 1.87 | 45.96 ± 11.03 |
| CCCCCCCCCCN(CCCCCCCCCC)C(=O)CCCCCCCN(CCCCCCCC(=O)N(CCCCCCCCCC)CCCCCCCCCC)C1CCC[C@H]1O (mixture of isomers) [(rac)-(1RS, 2RS) I-48, 8,8′-(((1s,2s)-2-hydroxycyclopentyl)azanediyl)bis(N,N-didecyloctanamide)] | 32.85 ± 6.90 | 216.8 ± 46.48 |
| CCCCCCCCCCN(CCCCCCCCCC)C(=O)CCCCCCCN(CCCCCCCC(=O)N(CCCCCCCCCC)CCCCCCCCCC)C1CCC(O)CC1 (stereo not drawn) [Compound I-9, 8,8′-((4-hydroxycyclohexyl)azanediyl)bis(N,N-didecyloctanamide)] | 35.77 ± 4.50 |  |
| CCCCCCCCCCN(CCCCCCCCCC)C(=O)CCCCCCCN(CCCCCCCC(=O)N(CCCCCCCCCC)CCCCCCCCCC)C1CCCC1O (racemic) [(rac)-(1RS, 2SR) I-48, 8,8′-(((1s,2r)-2-hydroxycyclopentyl)azanediyl)bis(N,N-didecyloctanamide)] | 43.32 ± 11.04 | 161.75 ± 26.50 |
| CCCCCCCCCCN(CCCCCCCCN(CCCCCCCC(=O)N(CCCCCCCCCC)CCCCCCCCCC)[C@H]1CC[C@H](O)CC1)C(=O)CCCCCCCCC [(1R, 4R) I-47, N-decyl-N-(8-((8-(didecylamino)-8-oxooctyl)((1r,4r)-4-hydroxycyclohexyl)amino)octyl)decanamide] | 16.24 ± 2.93 |  |
| C=CCCCCCCCCN(CCCCCCCCC=C)C(=O)CCCCCCCN(CCCCCCCC(=O)N(CCCCCCCCCC)CCCCCCCCCC)[C@H]1CC[C@@H](O)CC1 [(1S, 4S) I-57, N,N-di(dec-9-en-1-yl)-8-((8-(didecylamino)-8-oxooctyl)((1s,4s)-4-hydroxycyclohexyl)amino)octanamide] | 84.4 ± 35.10 |  |
| CCCCCCCCC(CCCCCCCC)N(CCCC)C(=O)CCCCCCCN(CCCCCCCC(=O)N(CCCC)C(CCCCCCCC)CCCCCCCC)[C@H]1CC[C@@H](O)CC1 [(1S, 4S) I-54, 8,8′-(((1s,4s)-4-hydroxycyclohexyl)azanediyl)bis(N-butyl-N-(heptadecan-9-yl)octanamide)] | 43.22 ± 12.97 |  |
| CCCCCCCCCCN(CCCCCCCCCC)C(=O)CCCCCCCN(CCCCCCCC(=O)N(CCCCCCCCCC)CCCCCCCCCC)[C@@H]1CC[C@H](O)C1 (racemic) [(rac)-(1RS, 3SR) I-14, 8,8′-(((1r,3s)-3-hydroxycyclopentyl)azanediyl)bis(N,N-didecyloctanamide); 8,8′-(((1s,3r)-3-hydroxycyclopentyl)azanediyl)bis(N,N-didecyloctanamide)] | 15.74 ± 5.71 | 66.16 ± 16.66 |
| CCCCCCCCCCN(CCCCCCCCCC)C(=O)CCCCCCCN(CCCCCCCC(=O)N(CCCC)C(CCCCCCCC)CCCCCCCC)[C@H]1CC[C@@H](O)CC1 [(1S, 4S) I-59, N-butyl-8-((8-(didecylamino)-8-oxooctyl)((1s,4s)-4-hydroxycyclohexyl)amino)-N-(heptadecan-9-yl)octanamide] | 84.23 ± 17.22 |  |
| CCCCCCCCCCN(CCCCCCCCCC)C(=O)CCCCCCCN(CCCCCCCC(=O)N(CCCCCCCCCC)CCCCCCCCCC)[C@@H]1CCC[C@@H](O)C1 [(1R, 3R) I-17, 8,8′-(((1R,3R)-3-hydroxycyclohexyl)azanediyl)bis(N,N-didecyloctanamide)] | 27.97 ± 3.37 | 178.14 ± 33.27 |
| CCCCCCCCCCN(CCCCCCCCN(CCCCCCCC(=O)N(CCCCCCCCCC)CCCCCCCCCC)C[C@H]1C[C@@H](O)C1)C(=O)CCCCCCCCC [(1S, 3S) I-21, N-decyl-N-(8-((8-(didecylamino)-8-oxooctyl)(((1S,3S)-3-hydroxycyclobutyl)methyl)amino)octyl)decanamide] | 71.49 ± 12.31 |  |
| CCCCCCCCCCN(CCCCCCCCCC)C(=O)CCCCCCCN(CCCCCCCC(=O)N(CCCCCCCCCC)CCCCCCCCCC)[C@H]1C[C@@H](CO)C1 [(1S, 3S) I-24, 8,8′-(((1S,3S)-3-(hydroxymethyl)cyclobutyl)azanediyl)bis(N,N-didecyloctanamide)] | 20.09 ± 5.90 | 57.71 ± 10.58 |
| CCCCCCCCCCN(CCCCCCCCCC)C(=O)CCCCCCCN(CCCCCCCC(=O)N(CCCCCCCCCC)CCCCCCCCCC)[C@@H]1CCC[C@@H]1O [(1R, 2S) I-48, 8,8′-(((1r,2s)-2-hydroxycyclopentyl)azanediyl)bis(N,N-didecyloctanamide)] | 28.32 ± 8.81 |  |
| CCCCCCCCCCN(CCCCCCCCCC)C(=O)CCCCCCCN(CCCCCCCC(=O)N(CCCCCCCCCC)CCCCCCCCCC)[C@H]1CC[C@@](C)(O)CC1 [(1S, 4S) I-25, 8,8′-(((1S,4S)-4-hydroxy-4-methylcyclohexyl)azanediyl)bis(N,N-didecyloctanamide)] | 39.96 ± 10.72 | 194.38 ± 27.83 |
| CCCCCCCCCCN(CCCCCCCCN(CCCCCCCCN(CCCCCCCCCC)C(=O)CCCCCCCCC)C[C@H]1C[C@H](O)C1)C(=O)CCCCCCCCC [(1R, 3R) I-22, N,N′-(((((1R,3R)-3-hydroxycyclobutyl)methyl)azanediyl)bis(octane-8,1-diyl))bis(N-decyldecanamide)] | 19.88 ± 2.53 |  |
| CCCCCCCCCCN(CCCCCCCCN(CCCCCCCC(=O)N(CCCCCCCCCC)CCCCCCCCCC)[C@H]1CC[C@@H](O)CC1)C(=O)CCCCCCCCC [(1S, 4S) I-47, N-decyl-N-(8-((8-(didecylamino)-8-oxooctyl)((1s,4s)-4-hydroxycyclohexyl)amino)octyl)decanamide] | 55.53 ± 11.50 | 158.59 ± 40.38 |
| CCCCCCCCCCN(CCCCCCCCCC)C(=O)CCCCCCCN(CCCCCCCC(=O)N(CCCCCCCCCC)CCCCCCCCCC)[C@H]1CCC[C@H]1O [(1S, 2R) I-15, 8,8′-(((1S,2R)-2-hydroxycyclopentyl)azanediyl)bis(N,N-didecyloctanamide)] | 33.97 ± 18.40 | 225.79 ± 54.78 |
| CCCCCCCCCCN(CCCCCCCCCC)C(=O)CCCCCCCN(CCCCCCCC(=O)N(CCCCCCCCCC)CCCCCCCCCC)[C@H]1C[C@H](CO)C1 [(1R, 3R) I-24, 8,8′-(((1R,3R)-3-(hydroxymethyl)cyclobutyl)azanediyl)bis(N,N-didecyloctanamide)] | 6.93 ± 2.48 | 19.77 ± 5.43 |
